Legend:
3D7 PFLDH = test system: 3D7 PFLDH; design: method as in F.J. Gamo et al., Nature 2010; conditions: downloaded from ChEMBL ref F.J. Gamo et al., Nature 2010; cited from earlier work
[1] = biological target: T1, Plasmodium falciparum calcium-dependent protein kinase 1 (CDPK1) (Plasmodium falciparum, UniProt P62344); experiment: CDPK1 Kinase-Glo ATP-consumption screen and dose-response; type: biochemical; conditions: hits below 1 uM; read-out: CDPK1 IC50
T1 construct: 6-Histidine (N); made in house
T1 sequence (P62344 whole entry): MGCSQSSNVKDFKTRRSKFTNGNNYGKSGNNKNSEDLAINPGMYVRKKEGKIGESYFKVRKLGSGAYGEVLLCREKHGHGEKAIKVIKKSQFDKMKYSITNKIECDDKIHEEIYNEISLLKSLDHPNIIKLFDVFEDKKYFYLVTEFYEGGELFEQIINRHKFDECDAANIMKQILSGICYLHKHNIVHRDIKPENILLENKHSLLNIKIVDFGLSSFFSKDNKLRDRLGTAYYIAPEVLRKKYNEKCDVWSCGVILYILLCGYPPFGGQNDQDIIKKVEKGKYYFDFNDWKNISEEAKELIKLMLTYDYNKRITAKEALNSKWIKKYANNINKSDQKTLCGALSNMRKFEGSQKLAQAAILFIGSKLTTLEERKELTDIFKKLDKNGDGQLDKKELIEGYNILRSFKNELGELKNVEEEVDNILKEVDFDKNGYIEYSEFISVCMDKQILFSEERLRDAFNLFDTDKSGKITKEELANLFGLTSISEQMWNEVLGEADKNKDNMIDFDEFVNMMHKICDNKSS
Procedure: Biochemical assays were performed in white 384-well plates (Nunc). Liquid transfers were done manually with 8-channel pipets. Compounds were initially tested in a single-point screen (final concentration 1 μM). […] The catalytic activity of each kinase was considered proportional to ATP consumed, as determined from measurements of residual [ATP] with the luciferase-based reagent Kinase-Glo (Promega) following incubation. Luminescence (proportional to residual [ATP]) was measured on the plate readers FLx800 (BioTek Instruments, Winooski, VT, USA) and MicroBeta^2 (PerkinElmer, Waltham, MA, USA). Incubation times were chosen to ensure near-complete ATP depletion in the absence of inhibition, thus maximizing the difference in signal between inhibited and uninhibited wells.
40 μM Syntide-2 was used as a substrate; BKI-1 [14] was used as a control inhibitor, while reaction mixtures lacking Syntide-2 were included as an additional negative control. Incubation time was 90 minutes. Reactions were terminated by adding excess EGTA (5 mM), which sequesters Ca^2+ and halts calcium-dependent kinase activity.

P. falciparum 3D7 cells = conditions: P. falciparum 3D7; downloaded from ChEMBL ref F.J. Gamo et al., Nature 2010; cited from earlier work
HepG2 cells = conditions: HepG2 cells; downloaded from ChEMBL ref F.J. Gamo et al., Nature 2010; cited from earlier work
DD2 = test system: DD2; design: method as in F.J. Gamo et al., Nature 2010; conditions: P. falciparum Dd2; downloaded from ChEMBL ref F.J. Gamo et al., Nature 2010; cited from earlier work

| Structure (SMILES) | PCT_INHIB_3D7_PFLDH (3D7 PFLDH) | IC50 [1] [µM] | PCT_IHB_3D7 (P. falciparum 3D7 cells) | pXC50_3D7 (P. falciparum 3D7 cells) | PCT_INHIB_HEPG2 (HepG2 cells) | PCT_INHB_DD2 (DD2) |
| --- | --- | --- | --- | --- | --- | --- |
| CCn1c(-c2nc(-c3ccnc(N4CCN(C)CC4)c3)cnc2N)nc2cc(S(C)(=O)=O)ccc21 [TCMDC-134155] | 0 | 0.654 | 100 | 6.089 | 44 | 76 |
| CCNC(=O)Nc1ccc(-c2cnc(N)c(-c3nc4ccc(OC)cc4[nH]3)c2)cc1 [TCMDC-135321] | 1 | 0.145 | 100 | 6.302 | 51 | 43 |
| COc1ccc2nc(-c3cc(-c4ccc(NC(C)=O)cc4)cnc3N)[nH]c2c1 [TCMDC-135365] | 0 | 0.501 | 93 | 5.906 | 55 | 73 |
| COc1cccc(Nc2nccc(-c3c(-c4cccc(NC(=O)c5c(F)cccc5F)c4)nn4ccccc34)n2)c1 [TCMDC-135508] | 0 | 0.087 | 98 | 6.749 | 35 | 98 |
| CS(=O)(=O)Cc1ccc(Nc2nccc(-c3c(-c4cccc(NC(=O)c5c(F)cccc5F)c4)nn4ncccc34)n2)cc1 [TCMDC-135681] | 1 | 0.011 | 97 | 6.79 | 86 | 93 |
| CCn1c(-c2nonc2N)nc2c(-c3cccc(NC(=O)Nc4ccc(Cl)cc4)c3)ncc(OCCCN)c21.O=C(O)C(F)(F)F [TCMDC-136152] | 0 | 0.044 | 96 | 6.082 | 26 | 72 |
| Cl.Oc1cc(-c2nc(-c3ccccc3)[nH]c2-c2ccncc2)ccc1Cl [TCMDC-139660] | 0 | 0.975 | 96 | 6.089 | 64 | 91 |
| CC(C)(CNCc1ccccc1)c1nc(-c2ccc(Cl)c(O)c2)c(-c2ccncc2)[nH]1.Cl [TCMDC-140389] | 0 | 0.19 | 100 | 6.27 | 77 | 99 |
| COc1ccc(CNCC(C)(C)c2nc(-c3ccc(Cl)c(O)c3)c(-c3ccncc3)[nH]2)cc1.Cl [TCMDC-140538] | 1 | 0.186 | 100 | 6.447 | 76 | 99 |
| CC(C)(CNCc1ccc(Cl)cc1)c1nc(-c2ccc(Cl)c(O)c2)c(-c2ccncc2)[nH]1.Cl [TCMDC-140548] | 5 | 0.257 | 100 | 6.322 | 86 | 98 |
| CC(C)(CNCc1ccc(F)c(F)c1)c1nc(-c2ccc(Cl)c(O)c2)c(-c2ccncc2)[nH]1.Cl [TCMDC-140672] | 2 | 0.451 | 100 | 6.181 | 74 | 89 |
| COc1cc(-c2nc(C(C)(C)CN)[nH]c2-c2ccncc2)ccc1Br.Cl [TCMDC-140674] | 1 | 0.159 | 97 | 6.114 | 17 | 95 |
| CC(C)(NCc1ncc[nH]1)c1nc(-c2ccc(Cl)c(O)c2)c(-c2ccncc2)[nH]1.Cl [TCMDC-140686] | 3 | 0.144 | 95 |  | 42 | 97 |
| COc1cccc(CNCC(C)(C)c2nc(-c3ccc(Cl)c(O)c3)c(-c3ccncc3)[nH]2)c1.Cl [TCMDC-140687] | 0 | 0.275 | 100 | 6.159 | 74 | 98 |
| CC(C)(CNCc1ccc(Cl)c(Cl)c1)c1nc(-c2ccc(Cl)c(O)c2)c(-c2ccncc2)[nH]1.Cl [TCMDC-140688] | 0 | 0.539 | 100 | 6.121 | 43 | 97 |
| CN1CCC=C(C(=O)NCC(C)(C)c2nc(-c3ccc(Cl)c(O)c3)c(-c3ccncc3)[nH]2)C1.Cl [TCMDC-140700] | 0 | 0.213 | 96 | 6 | 39 | 96 |
| CC(C)(CNCc1ccc(OC(F)(F)F)cc1)c1nc(-c2ccc(Cl)c(O)c2)c(-c2ccncc2)[nH]1.Cl [TCMDC-140708] | 0 | 0.438 | 100 | 6.263 | 38 | 99 |
| COc1ccc(C(=O)NCC(C)(C)c2nc(-c3ccc(Cl)c(O)c3)c(-c3ccncc3)[nH]2)cc1OCCN(C(C)C)C(C)C.Cl [TCMDC-140736] | 4 | 0.387 | 100 | 6.192 | 62 | 96 |
| CNCC(C)(C)c1nc(-c2ccc(Cl)c(O)c2)c(-c2ccncc2)[nH]1.Cl [TCMDC-140762] | 0 | 0.049 | 98 | 6.133 | 46 | 96 |
| CC(C)(CNC(=O)C1CCN(Cc2ccoc2)CC1)c1nc(-c2ccc(Cl)c(O)c2)c(-c2ccncc2)[nH]1.Cl [TCMDC-140954] | 0 | 0.425 | 93 | 6.062 | 0 | 66 |
| CC(C)(CN)c1nc(-c2ccc(Cl)c(O)c2)c(-c2ccnc(N)n2)[nH]1 [TCMDC-141019] | 0 | 0.00749 | 95 | 6.0083 | 34 | 95 |
| CC(C)(CNC(=O)[C@H]1CCCN1)c1nc(-c2ccc(Cl)c(O)c2)c(-c2ccncc2)[nH]1.Cl [TCMDC-141060] | 0 | 0.179 | 86 | 5.895 | 0 | 95 |
| CC(C)(CNC(=O)[C@H]1CCCCN1)c1nc(-c2ccc(Cl)c(O)c2)c(-c2ccncc2)[nH]1.Cl [TCMDC-141070] | 0 | 0.164 | 98 | 6.139 | 6 | 98 |
| CC(C)(CNC(=O)[C@@H]1CCCCN1)c1nc(-c2ccc(Cl)c(O)c2)c(-c2ccncc2)[nH]1.Cl [TCMDC-141079] | 0 | 0.192 | 97 | 6.075 | 0 | 96 |
| CC(C)(CNC(=O)C1CCN(CCOCc2ccccc2)CC1)c1nc(-c2ccc(Cl)c(O)c2)c(-c2ccncc2)[nH]1.Cl [TCMDC-141122] | 0 | 0.734 | 100 | 6.208 | 11 | 18 |
| CC(C)(CNC(=O)C1CCN(CCOc2ccc(Cl)cc2)CC1)c1nc(-c2ccc(Cl)c(O)c2)c(-c2ccncc2)[nH]1.Cl [TCMDC-141124] | 7 | 0.471 | 100 | 6.149 | 40 | 5 |
| CC(C)(CNC(=O)C1CCN(CCOc2ccc(F)c(F)c2)CC1)c1nc(-c2ccc(Cl)c(O)c2)c(-c2ccncc2)[nH]1.Cl [TCMDC-141136] | 0 | 0.664 | 100 | 6.5 | 41 | 19 |
| CC(C)(CNC(=O)C1CCN(Cc2ccc(Cl)cc2)CC1)c1nc(-c2ccc(Cl)c(O)c2)c(-c2ccncc2)[nH]1.Cl [TCMDC-141138] | 0 | 0.347 | 100 | 6.206 | 36 | 83 |
| Cl.Oc1cc(-c2nc(C3(CNCc4ccc(Cl)cc4)CCCCC3)[nH]c2-c2ccncc2)ccc1Cl [TCMDC-141155] | 2 | 0.846 | 100 | 6.903 | 35 | 99 |

Source: article PMC4774911, “Biochemical Screening of Five Protein Kinases from Plasmodium falciparum against 14,000 Cell-Active Compounds” (PLoS ONE, 2016)
